Patent US9113629B2, “4-amino-6-(4-substituted-phenyl)-picolinates and 6-amino-2-(4-substituted-phenyl)-pyrimidine-4-carboxylates and their use as herbicides” (DOW AGROSCIENCES LLC, priority 2013, dated 2015)

Tested on: Key Grass and Sedge Weeds as well as Grass Crops
Assay: Post-emergent Test II herbicidal activity (Table 6)
Type: in vivo
Conditions: post-emergence, 336 h, CYPES: yellow nutsedge (Cyperus esculentus), application rate 70 g ai/ha, read-out: Visual Growth Reduction (%) 14 Days After Application, CYPES
Method in brief: (§1)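 Greenhouse post-emergent assay: seedlings (first/second true leaf) in Metro-Mix 360 were sprayed at 187 L/ha at a top rate plus twofold dilutions down to 1/16×; solvent-blank controls were included. Percent visual injury was read at 14 d.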
For `Cc1cc(F)c(-c2nc(C(=O)O)c(Cl)c(N)c2F)cc1F` [Compound 194], the pest or weed control at 70 g/ha was 0 to 29%.

Same assay, conditions: post-emergence, 336 h, CYPES: yellow nutsedge (Cyperus esculentus), application rate 140 g ai/ha, read-out: Visual Growth Reduction (%) 14 Days After Application, CYPES
`Cc1cc(F)c(-c2nc(C(=O)O)c(Cl)c(N)c2F)cc1F` [Compound 194] showed a pest or weed control at 140 g/ha of 0 to 29%.

Same assay, conditions: post-emergence, 336 h, DIGSA: crabgrass (Digitaria sanguinalis), application rate 70 g ai/ha, read-out: Visual Growth Reduction (%) 14 Days After Application, DIGSA
With `Cc1cc(F)c(-c2nc(C(=O)O)c(Cl)c(N)c2F)cc1F` [Compound 194] the pest or weed control at 70 g/ha was 0 to 29%.

Same assay, conditions: post-emergence, 336 h, DIGSA: crabgrass (Digitaria sanguinalis), application rate 140 g ai/ha, read-out: Visual Growth Reduction (%) 14 Days After Application, DIGSA
Work on `Cc1cc(F)c(-c2nc(C(=O)O)c(Cl)c(N)c2F)cc1F` [Compound 194] yielded a pest or weed control at 140 g/ha of 0 to 29%.

Same assay, conditions: post-emergence, 336 h, ECHCG: barnyardgrass (Echinochloa crus-galli), application rate 70 g ai/ha, read-out: Visual Growth Reduction (%) 14 Days After Application, ECHCG
`Cc1cc(F)c(-c2nc(C(=O)O)c(Cl)c(N)c2F)cc1F` [Compound 194] showed a pest or weed control at 70 g/ha of 0 to 29%.

Same assay, conditions: post-emergence, 336 h, ECHCG: barnyardgrass (Echinochloa crus-galli), application rate 140 g ai/ha, read-out: Visual Growth Reduction (%) 14 Days After Application, ECHCG
For `Cc1cc(F)c(-c2nc(C(=O)O)c(Cl)c(N)c2F)cc1F` [Compound 194], the pest or weed control at 140 g/ha was 0 to 29%.

Same assay, conditions: post-emergence, 336 h, ORYSA: rice (Oryza sativa), application rate 70 g ai/ha, read-out: Visual Growth Reduction (%) 14 Days After Application, ORYSA
`Cc1cc(F)c(-c2nc(C(=O)O)c(Cl)c(N)c2F)cc1F` [Compound 194] showed a pest or weed control at 70 g/ha of 0 to 29%.

Same assay, conditions: post-emergence, 336 h, ORYSA: rice (Oryza sativa), application rate 140 g ai/ha, read-out: Visual Growth Reduction (%) 14 Days After Application, ORYSA
Work on `Cc1cc(F)c(-c2nc(C(=O)O)c(Cl)c(N)c2F)cc1F` [Compound 194] yielded a pest or weed control at 140 g/ha of 0 to 29%.

Same assay, conditions: post-emergence, 336 h, SETFA: giant foxtail (Setaria faberi), application rate 70 g ai/ha, read-out: Visual Growth Reduction (%) 14 Days After Application, SETFA
`Cc1cc(F)c(-c2nc(C(=O)O)c(Cl)c(N)c2F)cc1F` [Compound 194] showed a pest or weed control at 70 g/ha of 45 to 59%.

Same assay, conditions: post-emergence, 336 h, SETFA: giant foxtail (Setaria faberi), application rate 140 g ai/ha, read-out: Visual Growth Reduction (%) 14 Days After Application, SETFA
Work on `Cc1cc(F)c(-c2nc(C(=O)O)c(Cl)c(N)c2F)cc1F` [Compound 194] yielded a pest or weed control at 140 g/ha of 60 to 74%.

Same assay, conditions: post-emergence, 336 h, SORVU: grain sorghum (Sorghum vulgare), application rate 70 g ai/ha, read-out: Visual Growth Reduction (%) 14 Days After Application, SORVU
Compound `Cc1cc(F)c(-c2nc(C(=O)O)c(Cl)c(N)c2F)cc1F` [Compound 194] has a pest or weed control at 70 g/ha of 0 to 29%.

Same assay, conditions: post-emergence, 336 h, SORVU: grain sorghum (Sorghum vulgare), application rate 140 g ai/ha, read-out: Visual Growth Reduction (%) 14 Days After Application, SORVU
Work on `Cc1cc(F)c(-c2nc(C(=O)O)c(Cl)c(N)c2F)cc1F` [Compound 194] yielded a pest or weed control at 140 g/ha of 0 to 29%.

Same assay, conditions: post-emergence, 336 h, TRZSS (wheat, Triticum aestivum), application rate 70 g ai/ha, read-out: Visual Growth Reduction (%) 14 Days After Application, TRZSS
Work on `Cc1cc(F)c(-c2nc(C(=O)O)c(Cl)c(N)c2F)cc1F` [Compound 194] yielded a pest or weed control at 70 g/ha of 0 to 29%.

Same assay, conditions: post-emergence, 336 h, TRZSS (wheat, Triticum aestivum), application rate 140 g ai/ha, read-out: Visual Growth Reduction (%) 14 Days After Application, TRZSS
For `Cc1cc(F)c(-c2nc(C(=O)O)c(Cl)c(N)c2F)cc1F` [Compound 194], the pest or weed control at 140 g/ha was 0 to 29%.

Same assay, conditions: post-emergence, 336 h, ZEAMX: maize, corn (Zea mays), application rate 70 g ai/ha, read-out: Visual Growth Reduction (%) 14 Days After Application, ZEAMX
With `Cc1cc(F)c(-c2nc(C(=O)O)c(Cl)c(N)c2F)cc1F` [Compound 194] the pest or weed control at 70 g/ha was 0 to 29%.

Same assay, conditions: post-emergence, 336 h, ZEAMX: maize, corn (Zea mays), application rate 140 g ai/ha, read-out: Visual Growth Reduction (%) 14 Days After Application, ZEAMX
In the case of `Cc1cc(F)c(-c2nc(C(=O)O)c(Cl)c(N)c2F)cc1F` [Compound 194], the pest or weed control at 140 g/ha was 0 to 29%.

Tested on: not given
Assay: not given
Conditions: not given
With `Cc1cc(F)c(-c2nc(C(=O)O)c(Cl)c(N)c2F)cc1F` [Compound 194] the melting point was 167.4 to 170.2 °C.

Tested on: Key Broadleaf Weed and Crop Species
Assay: Post-emergent Test II herbicidal activity (Table 5)
Type: in vivo
Conditions: post-emergence, 336 h; ABUTH: velvetleaf (Abutilon theophrasti); application rate 70 g ai/ha; post-emergent; 14 days after application; read-out: Visual Growth Reduction (%) 14 Days After Application, ABUTH
Method in brief: as §1
`Cc1cc(F)c(-c2nc(C(=O)O)c(Cl)c(N)c2F)cc1F` [Compound 194] gave a pest or weed control at 70 g/ha of 60 to 74%.

Same assay, conditions: post-emergence, 336 h; ABUTH: velvetleaf (Abutilon theophrasti); application rate 140 g ai/ha; post-emergent; 14 days after application; read-out: Visual Growth Reduction (%) 14 Days After Application, ABUTH
`Cc1cc(F)c(-c2nc(C(=O)O)c(Cl)c(N)c2F)cc1F` [Compound 194] showed a pest or weed control at 140 g/ha of 75 to 84%.

Same assay, conditions: post-emergence, 336 h; AMARE: redroot pigweed (Amaranthus retroflexus); application rate 70 g ai/ha; post-emergent; 14 days after application; read-out: Visual Growth Reduction (%) 14 Days After Application, AMARE
In the case of `Cc1cc(F)c(-c2nc(C(=O)O)c(Cl)c(N)c2F)cc1F` [Compound 194], the pest or weed control at 70 g/ha was 95 to 100%.

Same assay, conditions: post-emergence, 336 h; AMARE: redroot pigweed (Amaranthus retroflexus); application rate 140 g ai/ha; post-emergent; 14 days after application; read-out: Visual Growth Reduction (%) 14 Days After Application, AMARE
`Cc1cc(F)c(-c2nc(C(=O)O)c(Cl)c(N)c2F)cc1F` [Compound 194] gave a pest or weed control at 140 g/ha of 95 to 100%.

Same assay, conditions: post-emergence, 336 h; BRSNN: oilseed-rape, canola (Brassica napus); application rate 70 g ai/ha; post-emergent; 14 days after application; read-out: Visual Growth Reduction (%) 14 Days After Application, BRSNN
In the case of `Cc1cc(F)c(-c2nc(C(=O)O)c(Cl)c(N)c2F)cc1F` [Compound 194], the pest or weed control at 70 g/ha was 60 to 74%.

Same assay, conditions: post-emergence, 336 h; BRSNN: oilseed-rape, canola (Brassica napus); application rate 140 g ai/ha; post-emergent; 14 days after application; read-out: Visual Growth Reduction (%) 14 Days After Application, BRSNN
Work on `Cc1cc(F)c(-c2nc(C(=O)O)c(Cl)c(N)c2F)cc1F` [Compound 194] yielded a pest or weed control at 140 g/ha of 75 to 84%.

Same assay, conditions: post-emergence, 336 h; CHEAL: lambsquarters (Chenopodium album); application rate 70 g ai/ha; post-emergent; 14 days after application; read-out: Visual Growth Reduction (%) 14 Days After Application, CHEAL
Compound `Cc1cc(F)c(-c2nc(C(=O)O)c(Cl)c(N)c2F)cc1F` [Compound 194] has a pest or weed control at 70 g/ha of 75 to 84%.

Same assay, conditions: post-emergence, 336 h; CHEAL: lambsquarters (Chenopodium album); application rate 140 g ai/ha; post-emergent; 14 days after application; read-out: Visual Growth Reduction (%) 14 Days After Application, CHEAL
`Cc1cc(F)c(-c2nc(C(=O)O)c(Cl)c(N)c2F)cc1F` [Compound 194] showed a pest or weed control at 140 g/ha of 85 to 94%.

Same assay, conditions: post-emergence, 336 h; EPHHL: wild poinsettia (Euphorbia heterophylla); application rate 70 g ai/ha; post-emergent; 14 days after application; read-out: Visual Growth Reduction (%) 14 Days After Application, EPHHL
In the case of `Cc1cc(F)c(-c2nc(C(=O)O)c(Cl)c(N)c2F)cc1F` [Compound 194], the pest or weed control at 70 g/ha was 85 to 94%.

Same assay, conditions: post-emergence, 336 h; EPHHL: wild poinsettia (Euphorbia heterophylla); application rate 140 g ai/ha; post-emergent; 14 days after application; read-out: Visual Growth Reduction (%) 14 Days After Application, EPHHL
For `Cc1cc(F)c(-c2nc(C(=O)O)c(Cl)c(N)c2F)cc1F` [Compound 194], the pest or weed control at 140 g/ha was 85 to 94%.

Same assay, conditions: post-emergence, 336 h; HELAN: sunflower (Helianthus annuus); application rate 70 g ai/ha; post-emergent; 14 days after application; read-out: Visual Growth Reduction (%) 14 Days After Application, HELAN
With `Cc1cc(F)c(-c2nc(C(=O)O)c(Cl)c(N)c2F)cc1F` [Compound 194] the pest or weed control at 70 g/ha was 85 to 94%.

Same assay, conditions: post-emergence, 336 h; HELAN: sunflower (Helianthus annuus); application rate 140 g ai/ha; post-emergent; 14 days after application; read-out: Visual Growth Reduction (%) 14 Days After Application, HELAN
For `Cc1cc(F)c(-c2nc(C(=O)O)c(Cl)c(N)c2F)cc1F` [Compound 194], the pest or weed control at 140 g/ha was 95 to 100%.

Same assay, conditions: post-emergence, 336 h; VIOTR: wild pansy (Viola tricolor); application rate 70 g ai/ha; post-emergent; 14 days after application; read-out: Visual Growth Reduction (%) 14 Days After Application, VIOTR
`Cc1cc(F)c(-c2nc(C(=O)O)c(Cl)c(N)c2F)cc1F` [Compound 194] showed a pest or weed control at 70 g/ha of 0 to 29%.

Same assay, conditions: post-emergence, 336 h; VIOTR: wild pansy (Viola tricolor); application rate 140 g ai/ha; post-emergent; 14 days after application; read-out: Visual Growth Reduction (%) 14 Days After Application, VIOTR
For `Cc1cc(F)c(-c2nc(C(=O)O)c(Cl)c(N)c2F)cc1F` [Compound 194], the pest or weed control at 140 g/ha was 0 to 29%.
